Test results published in patent US20130078718A1, “CONVERSION OF VASCULAR ENDOTHELIAL CELLS INTO MULTIPOTENT STEM-LIKE CELLS” (PRESIDENT AND FELLOWS OF HARVARD COLLEGE, priority 2010, published 2013).
Entries after “also recorded” stand apart in the source; their conditions may differ. Each block holds one molecule with its values, some of them ahead of it.

Columns and labels:
HUVECs = assay: Assessment of EndMT inhibitors (immunoblotting); format: cell-based, human; details: dorsomorphin 5 μM, BMP7 10 ng ml−1, VEGF 25 ng ml−1; for TGF-β2-induced changes in CD31, FSP-1 and CD44 expression (immunoblots): HUVECs
Method: Human umbilical vein endothelial cells (HUVEC) and human cutaneous microvascular endothelial cells (HCMEC) isolated as previously described (35). Cells were tested for purity and found to express no markers for lymphatic endothelial cells or stromal cells (pericytes, smooth muscle cells, etc.) (36). This was reconfirmed by flow cytometry analysis (data not shown). Clonal populations were isolated with PYREX 8×8 mm cloning cylinders (Corning) and shown to respond in a manner identical to that of the cultures used for our experiments (FIG. 25B-D). Cells were grown in culture using EGM-2 medium (Cambrex), containing 10% FBS and 1% Penicillin/Streptomycin, followed by human endothelial serum free medium (Gibco) 24 h prior to all experimental conditions. Bone marrow derived mesenchymal stem cells (ScienCell Research Laboratories) were grown in mesenchymal stem cell medium (ScienCell Research Laboratories). Bone marrow derived hematopoietic stem cells (Lonza) were grown in HPGM medium (Lonza). Human corneal fibroblasts, from a stock provided by Dr. Elizabeth Hay (Harvard Medical School), were grown in RPMI medium, containing 10% FBS and 1% Penicillin/Streptomycin. Primary human osteoblasts, chondrocytes, and adipocytes and their respective growth media were obtained from Cell Applications, Inc. […] Recombinant VEGF (R&D Systems) was added to cultures at a concentration of 25 ng ml^-1. Dorsomorphin (Sigma-Aldrich) was added to cultures at a concentration of 5 μM. All experiments for this study were performed at minimum in triplicate. Immunoassays were performed using the following antibodies at concentrations (and using protocols) recommended by the respective manufacturers: […] Stressgen), phospho-Smad2 (3101), Smad2 (3122), phospho-Smad5 (9516), Smad5 (9517; […] Santa Cruz Biotechnology), osterix (ab22552), adiponectin (ab22554), N-cadherin (ab76057), NG2 (ab83508), vWF (ab68545; Abcam); CD31 (IR610; Dako), […]; GenScript); α-SMA ([…]), β-actin (A1978; Sigma-Aldrich). Samples were run with Criterion precast SDS-PAGE Gels (Bio-Rad). […] TrueBlot IgG beads (eBioscience) were used for immunoprecipitation experiments. AlexaFluor secondary antibodies (Invitrogen) were used at a dilution of 1:200. Images were acquired using a Nikon 80i fluorescence microscope.

EndMT = details: references 30, 31; cited from earlier work
ALK2 = assay: siRNA knockdown of ALK2 expression (immunoblotting); format: cell-based, human; details: transfected for 24 hours
Method: (§1) siRNA gene expression knockdown studies were performed using the TriFECTa RNAi kit (Integrated DNA Technologies) and corresponding protocol. Each 27 mer siRNA duplex was transfected into cells using X-tremeGene siRNA transfection reagent (Roche) following the manufacturer's guidelines. siRNA was synthesized (Integrated DNA Technologies) with the following sequences: ALK2: 5′-[…]-3′ (SEQ ID NO: 51); negative control: 5′-[…]-3′ (SEQ ID NO: 52).
(§2) siRNA gene expression knockdown studies were performed using the TriFECTa RNAi kit (Integrated DNA Technologies) and corresponding protocol. Each 27 mer siRNA duplex was transfected into cells using X-tremeGene siRNA transfection reagent (Roche) following the manufacturer's guidelines. siRNA was synthesized (Integrated DNA Technologies) with the following sequences: […]

[1] = test system: endothelial cells (HUVEC, HCMEC); assay: RNA interference: effect of ALK siRNA on TGF-β2- or BMP4-induced EndMT and multipotency; format: cell-based, human
Method: Cells were grown in StemPro osteogenic, chondrogenic, or adipogenic culture medium (Invitrogen). Alkaline phosphatase staining was performed using the alkaline phosphatase kit and protocol (Sigma-Aldrich) on cultures grown in osteogenic medium for 7 days to detect osteoblasts. Alizarin Red (Sigma-Aldrich) staining was performed for 30 minutes on cultures grown in osteogenic medium for 21 days to detect matrix calcification. Alcian Blue (Sigma) staining was used to stain chondrocyte proteoglycans for 5 minutes in cultures grown in chondrogenic medium for 14 days. Oil Red O (Sigma-Aldrich) staining was performed for 15 minutes on cultures grown in adipogenic medium for 7 days.
as §1
Cells were grown in StemPro osteogenic, chondrogenic, or adipogenic culture medium (Invitrogen). Alkaline phosphatase staining was performed using the alkaline phosphatase kit and protocol (Sigma-Aldrich) on cultures grown in osteogenic medium for 7 d to detect osteoblasts. Alizarin Red (Sigma-Aldrich) staining was performed for 30 min on cultures grown in osteogenic medium for 21 d to detect matrix calcification. Alcian Blue (Sigma) staining was used to stain chondrocyte proteoglycans for 5 minutes in cultures grown in chondrogenic medium for 14 d. Oil Red O (Sigma-Aldrich) staining was performed for 15 min on cultures grown in adipogenic medium for 7 d. For in vivo analysis, endothelial cells were labeled with fluorescent quantum dots using the Qtracker 525 Cell Labeling Kit (Invitrogen). Cells were treated in culture to induce EndMT then absorbed into OPLA polylactic acid scaffolds (BD Biosciences). Scaffolds were surgically implanted subcutaneously into immunodeficient nude mice (Nu/Nu strain; Charles River Laboratories). Local injection of StemPro differentiation medium (described above) was performed in the area of the implants every 72 h for 6 weeks. Scaffolds were cryosectioned and stained with Alizarin Red, Alcian Blue, or Oil Red O as described above. All procedures were reviewed and approved by the Institutional Animal Care and Use Committee at Harvard Medical School.
as §2

Smad2 and Smad5 = assay: Smad phosphorylation by immunoblotting; format: cell-based, human; details: HUVECs, 10 ng ml−1, 1 h
Method: Human umbilical vein endothelial cells (HUVEC) and human cutaneous microvascular endothelial cells (HCMEC) were provided by J. Bischoff (Children's Hospital Boston) and isolated as previously described^35. […] Cells were grown in culture using EGM-2 medium (Cambrex), containing 10% FBS and 1% Penicillin/Streptomycin, followed by human endothelial serum free medium (Gibco) 24 hours prior to all experimental conditions. Bone marrow derived mesenchymal stem cells (ScienCell Research Laboratories) were grown in mesenchymal stem cell medium (ScienCell Research Laboratories). Human corneal fibroblasts, from a stock initially provided by E. Hay (Harvard Medical School), were grown in RPMI medium, containing 10% FBS and 1% Penicillin/Streptomycin. Primary human osteoblasts, chondrocytes, and adipocytes and their respective growth media were obtained from Cell Applications Inc. Recombinant TGF-β2 and BMP4 proteins (R&D Systems) were added to the serum free culture medium for all relevant experiments at a concentration of 10 ng/mL. Cells were treated for 15 minutes to assess ALK2 phosphorylation, 1 hour to measure Smad5 phosphorylation, or 48 hours to induce EndMT. All experiments for this study were performed at minimum in triplicate.
Immunoassays were performed using the following antibodies at concentrations (and using protocols) recommended by the respective manufacturers: FSP-1 (H00006275-M01; Stressgen), ALK2 (sc-5671), Phospho-tyrosine (sc-7020), VE-cadherin (sc-6458), TIE2 (sc-324, sc-9026), STRO-1 (sc-47733), CD44 (sc-71220), CD90 (sc-9163), Osteocalcin (sc-74495, sc-23790), SOX9 (sc-20095), COL2A1 (sc-59958, sc-52658), PPARγ2 (sc-22022; Santa Cruz Biotechnology), vWF (ab68545; Abcam); His (A00174; GenScript); α-SMA (A5228), β-actin (A1978; Sigma-Aldrich). Samples were run with Criterion precast SDS-PAGE Gels (Bio-Rad). HRP-conjugated IgG TrueBlot reagents (18-8814, 18-8816, 18-8817; eBioscience) were used at a dilution of 1:1000. TrueBlot IgG beads (eBioscience) were used for immunoprecipitation experiments. Alexa Fluor secondary antibodies (Invitrogen) were used at a dilution of 1:200. Images were acquired using a Nikon 80i fluorescence microscope.
Human umbilical vein endothelial cells (HUVEC) and human cutaneous microvascular endothelial cells (HCMEC) isolated as previously described (35). […] Cells were grown in culture using EGM-2 medium (Cambrex), containing 10% FBS and 1% Penicillin/Streptomycin, followed by human endothelial serum free medium (Gibco) 24 h prior to all experimental conditions. Bone marrow derived mesenchymal stem cells (ScienCell Research Laboratories) were grown in mesenchymal stem cell medium (ScienCell Research Laboratories). Bone marrow derived hematopoietic stem cells (Lonza) were grown in HPGM medium (Lonza). Human corneal fibroblasts, from a stock provided by Dr. Elizabeth Hay (Harvard Medical School), were grown in RPMI medium, containing 10% FBS and 1% Penicillin/Streptomycin. Primary human osteoblasts, chondrocytes, and adipocytes and their respective growth media were obtained from Cell Applications, Inc. Recombinant TGF-β2, BMP4, and BMP7 proteins (R&D Systems) were added to the serum free culture medium for all relevant experiments at a concentration of 10 ng ml^−1. Recombinant VEGF (R&D Systems) was added to cultures at a concentration of 25 ng ml^−1. Dorsomorphin (Sigma-Aldrich) was added to cultures at a concentration of 5 μM.

ALK2 with ALK5 = target: T1, ALK2 with ALK5 (Homo sapiens, UniProt Q04771); assay: Interaction of ALK2 with ALK5: immunoprecipitation of ALK2, immunoblotting for ALK5; format: cell-based; details: 10 ng ml−1, 15 min
T1 construct: endogenous in cells; host or cells: HUVEC
T1 sequence (Q04771 21-509): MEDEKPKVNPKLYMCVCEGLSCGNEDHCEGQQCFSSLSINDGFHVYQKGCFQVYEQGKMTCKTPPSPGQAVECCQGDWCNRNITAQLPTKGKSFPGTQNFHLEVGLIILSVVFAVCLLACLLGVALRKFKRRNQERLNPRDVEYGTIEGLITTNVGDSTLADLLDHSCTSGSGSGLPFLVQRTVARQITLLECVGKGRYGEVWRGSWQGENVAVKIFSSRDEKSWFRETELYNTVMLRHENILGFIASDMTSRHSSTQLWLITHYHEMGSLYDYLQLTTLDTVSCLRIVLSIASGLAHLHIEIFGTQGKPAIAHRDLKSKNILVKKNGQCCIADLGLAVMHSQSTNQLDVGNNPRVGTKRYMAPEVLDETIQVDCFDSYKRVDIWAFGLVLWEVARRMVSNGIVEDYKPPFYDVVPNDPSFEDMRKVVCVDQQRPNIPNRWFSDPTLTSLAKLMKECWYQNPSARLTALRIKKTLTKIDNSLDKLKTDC
Method: Human umbilical vein endothelial cells (HUVEC) and human cutaneous microvascular endothelial cells (HCMEC) isolated as previously described (35). Cells were tested for purity and found to express no markers for lymphatic endothelial cells or stromal cells (pericytes, smooth muscle cells, etc.) (36). This was reconfirmed by flow cytometry analysis (data not shown). Clonal populations were isolated with PYREX 8×8 mm cloning cylinders (Corning) and shown to respond in a manner identical to that of the cultures used for our experiments (FIG. 25B-D). Cells were grown in culture using EGM-2 medium (Cambrex), containing 10% FBS and 1% Penicillin/Streptomycin, followed by human endothelial serum free medium (Gibco) 24 h prior to all experimental conditions. Bone marrow derived mesenchymal stem cells (ScienCell Research Laboratories) were grown in mesenchymal stem cell medium (ScienCell Research Laboratories). Bone marrow derived hematopoietic stem cells (Lonza) were grown in HPGM medium (Lonza). Human corneal fibroblasts, from a stock provided by Dr. Elizabeth Hay (Harvard Medical School), were grown in RPMI medium, containing 10% FBS and 1% Penicillin/Streptomycin. Primary human osteoblasts, chondrocytes, and adipocytes and their respective growth media were obtained from Cell Applications, Inc. […] Recombinant VEGF (R&D Systems) was added to cultures at a concentration of 25 ng ml^-1. Dorsomorphin (Sigma-Aldrich) was added to cultures at a concentration of 5 μM. All experiments for this study were performed at minimum in triplicate. Immunoassays were performed using the following antibodies at concentrations (and using protocols) recommended by the respective manufacturers: […] Stressgen), phospho-Smad2 (3101), Smad2 (3122), phospho-Smad5 (9516), Smad5 (9517; […] Santa Cruz Biotechnology), osterix (ab22552), adiponectin (ab22554), N-cadherin (ab76057), NG2 (ab83508), vWF (ab68545; Abcam); CD31 (IR610; Dako), […]; GenScript); α-SMA ([…]), β-actin (A1978; Sigma-Aldrich). […] Images were acquired using a Nikon 80i fluorescence microscope.

[2] = siRNA 24 hours, then TGF-β2 or BMP4 48 hours
[3] = siRNA transfected, osteogenic medium 7 days

Molecule: VEGF
TGF-β2-induced changes in CD31, FSP-1 and CD44 expression (immunoblots) (HUVECs): inhibition of TGF-β2-induced decreases in CD31 and increases in FSP-1 and CD44 expression | effect on EndMT (inhibitor) (HUVECs): inhibitors of EndMT | effect on EndMT (EndMT): inhibit EndMT

Molecule: ALK2 siRNA: 27 mer siRNA duplex 5'-GCAACACUGUCCAUUCUUCUUAACCAG-3′ (SEQ ID NO: 51/56) (chemistry not fully specified)
ALK2 expression (immunoblotting) (ALK2): complete inhibition | TGF-β2- or BMP4-induced decrease in VE-cadherin and increase in CD44 expression (ELISA) ([1]; HUVECs, ALK-specific siRNA): inhibited | TGF-β2- or BMP4-induced increases in FSP-1 and STRO-1 expression (immunoblotting) ([1]; siRNA 24 h, then TGF-β2 or BMP4 48 h): blocked these increases | TGF-β2- or BMP4-induced STRO-1 expression (immunoblotting) [1, 2]: prevented TGF-β2- or BMP4-induced increases | TGF-β2- or BMP4-induced increase in FSP-1 expression (immunoblotting) [1, 2]: completely blocked these increases | cells expressing FSP-1 after TGF-β2 or BMP4 (flow cytometry) [1, 2]: very few cells expressing FSP-1 | TGF-β2- or BMP4-induced increases in osteocalcin and osterix expression (real-time quantitative PCR) [1, 3]: prevented these increases | alkaline phosphatase staining of TGF-β2 or BMP4 treated cultures [1, 3]: no positive staining and none

ALK5 in ALK2 immunoprecipitates (ALK2 with ALK5): No interaction of ALK2 and ALK5
B1: BMP7: Recombinant BMP7 protein (R&D Systems), ALK2 activating ligand that inhibits EndMT (protein)
chain: STGSKQRSQNRSKTPKNQEALRMANVAENSSSDQRQACKKHELYVSFRDLGWQDWIIAPEGYAAYYCEGECAFPLNSYMNATNHAIVQTLVHFINPETVPKPCCAPTQLNAISVLYFDDSSNVILKKYRNMVVRACGCH
TGF-β2-induced changes in CD31, FSP-1 and CD44 expression (immunoblots) (HUVECs): inhibition of TGF-β2-induced decreases in CD31 and increases in FSP-1 and CD44 expression | effect on EndMT (inhibitor) (HUVECs): inhibits EndMT; also recorded: inhibitors of EndMT | phosphorylation of Smad2 and Smad5 (immunoblotting) (Smad2 and Smad5): stimulated phosphorylation of only Smad5
